According to US12478617B2, “Lipidated peptide inhibitors of interleukin-23 receptor” (JANSSEN BIOTECH, INC., priority 2021, dated 2025):
Positions of bridges follow the written chain, without caps; N, C: chain ends. Non-standard residues stand in square brackets, D forms with d. Residues, ends and D or L forms follow the SMILES beside them. *: point of attachment. X1 = O=C(O)CCCCCCCCCCCCCCC(=O)N[C@@H](CCCCN*)C(=O)O; Trp(7-Me) = Cc1cccc2c(C[C@H](N)C(=O)O)c[nH]c12; 2Nal = N[C@@H](Cc1ccc2ccccc2c1)C(=O)O; AEF = NCCOc1ccc(C[C@H](N)C(=O)O)cc1; 3Pal = N[C@@H](Cc1cccnc1)C(=O)O; Pen = CC(C)(S)[C@H](N)C(=O)O; Thp = NC1(C(=O)O)CCOCC1; AEEA = NCCOCCOCC(=O)O; Sar = CNCC(=O)O

Legend:
[1] = target: T1, peripheral blood mononuclear cells (PBMCs) (Homo sapiens, UniProt Q5VWK5); test: PBMC pSTAT3 assay; format: cell-based; details: PBMCs from healthy donors, anti-CD3/IL-1β cultured; peptide 30 min, then IL-23 5 ng/mL for 30 min; phosphorylated STAT3 (Meso Scale Discovery)
T1 sequence (Q5VWK5 24-629): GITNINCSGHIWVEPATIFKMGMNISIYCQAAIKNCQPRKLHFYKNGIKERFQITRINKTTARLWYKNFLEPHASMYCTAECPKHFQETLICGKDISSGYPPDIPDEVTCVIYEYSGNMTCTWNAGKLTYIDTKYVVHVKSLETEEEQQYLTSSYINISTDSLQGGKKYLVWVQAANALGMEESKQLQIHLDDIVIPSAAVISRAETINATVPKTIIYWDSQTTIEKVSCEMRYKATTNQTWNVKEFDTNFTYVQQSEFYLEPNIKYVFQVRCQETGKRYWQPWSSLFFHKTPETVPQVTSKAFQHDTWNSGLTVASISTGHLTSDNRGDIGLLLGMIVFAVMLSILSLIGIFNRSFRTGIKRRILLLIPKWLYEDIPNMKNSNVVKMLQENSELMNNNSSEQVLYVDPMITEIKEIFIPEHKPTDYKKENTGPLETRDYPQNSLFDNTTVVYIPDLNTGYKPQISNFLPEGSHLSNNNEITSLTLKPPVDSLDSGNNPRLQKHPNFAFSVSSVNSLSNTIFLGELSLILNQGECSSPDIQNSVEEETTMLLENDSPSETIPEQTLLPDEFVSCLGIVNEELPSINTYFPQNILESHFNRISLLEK
Source text: IL-23 binding to IL-23 receptors results in the activation of the Signal Transducer and Activator of Transcription 3 (STAT3) by phosphorylation and downstream signaling events. Accordingly. the ability of the inhibitors described herein to block IL-23 action can be assessed by monitoring the status of STAT3 activation in response to IL-23. This may be accomplished in reporter cell assays or in intact cells such as peripheral blood mononuclear cells (PBMCs).

[2] = from Ac-Pen-Asn-Thr-7MeTrp-Lys(Ac)-Pen-AEF-2Nal-THP-Lys(Ac)-Asn-3Pya-Sar-PEG2-PEG2-eLys(C16OH)-OH; disulfide bond; 20-membered ring; I2/AcOH; ACN/H2O; […]
IL-23R = target: T2, IL-23R (Homo sapiens, UniProt Q5VWK5); test: IL23R Reporter Assay; format: cell-based
T2 construct: HEK293 cells containing IL-23R, IL-12RP31 and a firefly luciferase reporter gene driven by a STAT-inducible promoter (Promega); host or cells: HEK293
T2 sequence (Q5VWK5 24-629): T1 sequence (Q5VWK5 24-629)
Method in brief: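 Luminescence from BioGlo, read after cells were moved to 20 °C, followed a 5 h incubation at 37 °C, 5% CO2 with DMSO-diluted test compounds.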

With `CC(=O)NCCCC[C@@H]1NC(=O)[C@H](Cc2c[nH]c3c(C)cccc23)NC(=O)[C@H]([C@@H](C)O)NC(=O)[C@H](CC(N)=O)NC(=O)[C@@H](NC(C)=O)C(C)(C)SSC(C)(C)[C@@H](C(=O)N[C@@H](Cc2ccc(OCCN)cc2)C(=O)N[C@@H](Cc2ccc3ccccc3c2)C(=O)NC2(C(=O)N[C@@H](CCCCNC(C)=O)C(=O)N[C@@H](CC(N)=O)C(=O)N[C@@H](Cc3cccnc3)C(=O)N(C)CC(=O)NCCOCCOCC(=O)NCCOCCOCC(=O)NCCCC[C@H](NC(=O)CCCCCCCCCCCCCCC(=O)O)C(=O)O)CCOCC2)NC1=O` [Example 8, MeCO-Pen*-N-T-7MeW-K(Ac)-Pen*-AEF-2Nal-THP—K(Ac)-N— 3Pva-Sar-PEG2-PEG2-eK(C160H)-COOH (*Pen-Pen form disulfide bond)] (Ac-[Pen]NT[Trp(7-Me)]K(Ac)[Pen][AEF][2Nal][Thp]K(Ac)N[3Pal][Sar][AEEA][AEEA]-X1; disulfide 1-6) as the compound, how does the IC50 [1] read?
Its IC50 is 0.21 nM.

And the ring closure, yield after HPLC [2]?
The ring closure, yield after HPLC was 7%.

And the IC50 (IL-23R)?
The IC50 was 0.089 nM.
